Data taken from PMC8885657, “HPV infection alters vaginal microbiome through down-regulating host mucosal innate peptides used by Lactobacilli as amino acid sources” (Nature Communications, 2022).

Tested on: HPV E7 oncoprotein with IKK complex or β-catenin destruction complex proteins
Experiment: Gaussia princeps luciferase complementation assay (GPCA)
Type: binding, human papillomavirus / human
Details: for GPCA signal, interaction with CK1a1: partner CK1a1; for GPCA signal, interaction with CK1 alpha 1: partner CK1 alpha 1, Fig 4M; for GPCA signal, interaction with CK1e: partner CK1e; for GPCA signal, interaction with CK1g1: partner CK1g1; for GPCA signal, interaction with CK1g2: partner CK1g2; for GPCA signal, interaction with CK1g3: partner CK1g3; for GPCA signal, interaction with CK1d: partner CK1d; for GPCA signal, interaction with DVL1: partner DVL1; for GPCA signal, interaction with DVL2: partner DVL2; for GPCA signal, interaction with DVL3: partner DVL3; for GPCA signal, interaction with GSK3B: partner GSK3B; for GPCA signal, interaction with NEMO: partner NEMO, Fig 3K; for GPCA signal, interaction with PPP2CA: partner PPP2CA; for GPCA signal, interaction with PPP2CB: partner PPP2CB
Excerpt: The coding (or mutated/truncated) sequences of HPV E7 from several alpha and beta genotypes (alpha: HPV16, 18, 33, and 39; beta: HPV8, 38, and 49) were transferred into Gateway-compatible GPCA destination vector pSPICA-N2. The open reading frames (ORFs) encoding proteins involved in IKK or β-catenin destruction complex were obtained from the human ORFeome v7.1 and 8.1 (Dana-Farber Cancer Institute, Boston, MA, USA) and were transferred into pSPICA-N1 plasmid. GPCA expression vectors (pSPICA-N1 and N2) allow the expression of two complementary fragments of the G. princeps luciferase (Gluc1 or Gluc2) linked to the N-terminal ends of tested proteins. All constructions were controlled by Sanger sequencing (GIGA-Genomics platform, University of Liege). GPCA experiments were then performed as extensively described previously[90],[91]. Briefly, HEK-293T cells were simultaneously transfected with 100 ng of pSPICA-N1-IKK or β-catenin destruction complex proteins and 100 ng of pSPICA-N2-E7 using PEI Max (Polysciences, Warrington, PA, USA). After 24 h, cells were washed, lysed and luciferase enzymatic activity was measured for 10 seconds using a Centro LB960 microplate luminometer (Berthold Technologies, Bad Wildbad, Germany). The luciferase assay system was purchased from Promega. As previously described, results were expressed as a luminescence value normalized over the sum of controls [normalized luminescence ratio (NLR)].

Substance: HPV16 E7
- GPCA signal, interaction with Beta-TrCP (partner Beta-TRCP, Fig 4L, replicate 1): 8.518
- GPCA signal, interaction with Beta-TrCP (partner Beta-TRCP, Fig 4L, replicate 2): 8.927
- GPCA signal, interaction with Beta-TrCP (partner Beta-TRCP, Fig 4L, replicate 3): 6.394
- GPCA signal, interaction with Beta-TrCP (partner Beta-TrCP, Fig 4N, replicate 1): 8.216
- GPCA signal, interaction with Beta-TrCP (partner Beta-TrCP, Fig 4N, replicate 2): 18.6197
- GPCA signal, interaction with Beta-TrCP (partner Beta-TrCP, Fig 4N, replicate 3): 12.6285
- GPCA signal, interaction with CK1a1 (Fig 4L, replicate 1): 4.195
- GPCA signal, interaction with CK1a1 (Fig 4L, replicate 2): 4.4237
- GPCA signal, interaction with CK1a1 (Fig 4L, replicate 3): 4.5837
- GPCA signal, interaction with CK1 alpha 1 (replicate 1): 4.747
- GPCA signal, interaction with CK1 alpha 1 (replicate 2): 7.358
- GPCA signal, interaction with CK1 alpha 1 (replicate 3): 7.5013
- GPCA signal, interaction with CK1e (Fig 4L, replicate 1): 2.875
- GPCA signal, interaction with CK1e (Fig 4L, replicate 2): 2.433
- GPCA signal, interaction with CK1e (Fig 4L, replicate 3): 2.765
- GPCA signal, interaction with CK1g1 (Fig 4L, replicate 1): 13.8547
- GPCA signal, interaction with CK1g1 (Fig 4L, replicate 2): 9.7345
- GPCA signal, interaction with CK1g1 (Fig 4L, replicate 3): 4.265
- GPCA signal, interaction with CK1g2 (Fig 4L, replicate 1): 8.184
- GPCA signal, interaction with CK1g2 (Fig 4L, replicate 2): 7.066
- GPCA signal, interaction with CK1g2 (Fig 4L, replicate 3): 7.286
- GPCA signal, interaction with CK1g3 (Fig 4L, replicate 1): 8.632
- GPCA signal, interaction with CK1g3 (Fig 4L, replicate 2): 7.582
- GPCA signal, interaction with CK1g3 (Fig 4L, replicate 3): 7.146
- GPCA signal, interaction with CK1d (Fig 4L, replicate 1): 4.409
- GPCA signal, interaction with CK1d (Fig 4L, replicate 2): 3.975
- GPCA signal, interaction with CK1d (Fig 4L, replicate 3): 4.309
- GPCA signal, interaction with DVL1 (Fig 4L, replicate 1): 3.768
- GPCA signal, interaction with DVL1 (Fig 4L, replicate 2): 3.207
- GPCA signal, interaction with DVL1 (Fig 4L, replicate 3): 4.087
- GPCA signal, interaction with DVL2 (Fig 4L, replicate 1): 1.678
- GPCA signal, interaction with DVL2 (Fig 4L, replicate 2): 1.485
- GPCA signal, interaction with DVL2 (Fig 4L, replicate 3): 1.904
- GPCA signal, interaction with DVL3 (Fig 4L, replicate 1): 1.994
- GPCA signal, interaction with DVL3 (Fig 4L, replicate 2): 1.934
- GPCA signal, interaction with DVL3 (Fig 4L, replicate 3): 1.325
- GPCA signal, interaction with GSK3B (Fig 4L, replicate 1): 9.854
- GPCA signal, interaction with GSK3B (Fig 4L, replicate 2): 8.937
- GPCA signal, interaction with GSK3B (Fig 4L, replicate 3): 8.081
- GPCA signal, interaction with NEMO (replicate 1): 28.7366
- GPCA signal, interaction with NEMO (replicate 2): 37.4793
- GPCA signal, interaction with NEMO (replicate 3): 29.9172
- GPCA signal, interaction with PPP2CA (Fig 4L, replicate 1): 1.175
- GPCA signal, interaction with PPP2CA (Fig 4L, replicate 2): 1.457
- GPCA signal, interaction with PPP2CA (Fig 4L, replicate 3): 0.9985
- GPCA signal, interaction with PPP2CB (Fig 4L, replicate 1): 2.065
- GPCA signal, interaction with PPP2CB (Fig 4L, replicate 2): 1.7166
- GPCA signal, interaction with PPP2CB (Fig 4L, replicate 3): 1.3201
